We go through one molecule from patent US9452997B2, “Piperidine and piperazine derivatives as autotaxin inhibitors” (Merck Patent GmbH, priority 2009, dated 2016).

In this test the target is T1, Recombinant autotaxin (Homo sapiens, UniProt Q13822).
T1 construct: made in house; host or cells: Hi5 insect cells (baculovirus)
Kind of test: Autotaxin assay (Amplex Red, LPC substrate). The class given is biochemical. The settings on record: recombinant autotaxin, LPC substrate, Amplex Red detection; values given as upper bounds. The procedure, abridged:
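Recombinant autotaxin (Hi5 baculovirus, 16 ng) pre-incubated with compound 30 min at 22° C, then reacted with 75 μM egg LPC for 90 min at 37° C. Choline released is coupled to H2O2 and Amplex Red fluorescence (ex 485/em 612 nm). IC50 from ten 1:3 dilutions from 30 μM, duplicates, normalised to 500 μM C14 LPA.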

One may read the IC50 as the concentration needed to halve the response being measured.

On to `O=C(NC1CCC(N2CCN(C(=O)OCc3ccc(C(F)(F)F)c(F)c3)CC2)CC1)c1ccc2[nH]nnc2c1` (stereo not shown) [Compound 189, 4-{4-[(1H-Benzotriazole-5-carbonyl)-amino]-cyclohexyl}-piperazine-1-carboxylic acid 3-fluoro-4-trifluoromethyl-benzyl ester], for which the IC50 is below 10 µM.
